Test results: US20210214406A1, “AMYLOSPHEROID (ASPD)-LIKE STRUCTURE AND PHARMACEUTICAL COMPOSITION” (TAO HEALTH LIFE PHARMA CO., LTD., priority 2016, published 2021)

How the values were obtained:
[1] = Storage stability at −80° C. (calibration curve slope in sandwich ELISA with two ASPD-specific antibodies); assay type: physicochemical; settings: stored at −80° C. for 0 month, 3 months, and 6 months
Method: A cell secreted-type ASPD structure obtained by expressing hAPP695-sw-G33I of Test Example 14 was stored at −80° C. for 0 month, 3 months, and 6 months. The samples thus obtained were subjected to measurement performed with a sandwich ELISA using two types of ASPD-specific antibodies (neutralizing antibodies) to prepare a calibration curve.

[2] = system: New Zealand white rabbits; test: Immunogenicity of synthetic ASPD in rabbits (serum dot blot); assay type: in vivo, rabbit; settings: rabbits immunized six times with 100 μg; Freund's adjuvant, aluminum hydroxide adjuvant, or no adjuvant
Method: New Zealand white rabbits (3 per each condition) were immunized six times with 100 μg of synthetic ASPD using Freund's adjuvant, aluminum hydroxide adjuvant, and no adjuvant. Thereafter, the whole blood was collected and the reactivity to the synthetic ASPD in serum was evaluated by dot blot.

[3] = target: anti-ASPD polyclonal antibody (rpASD1); test: Dissociation constant with rpASD1 antibody by surface plasmon resonance; assay type: binding, rabbit; settings: ASPD immobilized as ligand, rpASD1 as analyte, SPR; result in words
[4] = system: old cynomolgus monkey; test: Subcutaneous immunization of old cynomolgus monkey with ASPD; assay type: in vivo

Substance: synthetic ASPD: in vitro synthesized spherical Aß assembly produced by slowly stirring a liquid containing wild type Aß1-42
- storage stability (slope of primary regression line of ELISA calibration curve) [1]: low storage stability
- reactivity to the synthetic ASPD in serum (dot blot) [2]: sufficient reactivity was obtained in all the rabbits even without using adjuvant
- dissociation constant (KD) / reactivity to rpASD1 [3]: equivalent
- brain glucose metabolism (neural activity) [4]: increased
